Experimental data taken from the supplement of paper PMC10307832.

Key:
Assay in all cases: relative viability (nuclei count vs DMSO), 5 days (fraction); higher = more cells survive
[1] = compound: CC[C@H](CO)Nc1nc(NCc2ccccc2)c2ncn(C(C)C)c2n1 [Seliciclib] + Cc1cc(Nc2cc(N3CCN(C)CC3)nc(Sc3ccc(NC(=O)C4CC4)cc3)n2)n[nH]1 [Tozasertib] (partner 0.1 µM)
Method in brief: (§1)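 Each reported value is a median over duplicate plates. It expresses relative viability: treated-well nuclei count divided by vehicle-well nuclei count. Lung cancer cell lines in 1536-well plates were dosed by pin tool a day after seeding, alone with one drug or with a fixed anchor-drug dose plus five library-drug doses (not always all listed) in √10 steps, and nuclei were counted after 5 days.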

[2] = compound: CC[C@H](CO)Nc1nc(NCc2ccccc2)c2ncn(C(C)C)c2n1 [Seliciclib] + NC(=O)Nc1cc(-c2cccc(F)c2)sc1C(=O)N[C@H]1CCCNC1 [AZD7762] (partner 0.2 µM)
Method in brief: as §1

[3] = compound: CC[C@H](CO)Nc1nc(NCc2ccccc2)c2ncn(C(C)C)c2n1 [Seliciclib] + CC(C)C[C@H](NC(=O)[C@H](Cc1ccccc1)NC(=O)c1cnccn1)B(O)O [Bortezomib] (partner 0.002 µM)
Method in brief: as §1

[4] = compound: CC[C@H](CO)Nc1nc(NCc2ccccc2)c2ncn(C(C)C)c2n1 [Seliciclib] + Nc1ncn([C@H]2C[C@H](O)[C@@H](CO)O2)c(=O)n1 [Decitabine] (partner 2 µM)
Method in brief: as §1

Row | Cell Line | relative viability ([1]; first compound 0.08 µM) | relative viability ([1]; first compound 0.253 µM) | relative viability ([1]; first compound 0.8 µM) | relative viability ([1]; first compound 2.53 µM) | relative viability ([1]; first compound 8 µM) | relative viability ([2]; first compound 0.08 µM) | relative viability ([2]; first compound 0.253 µM) | relative viability ([2]; first compound 0.8 µM) | relative viability ([2]; first compound 2.53 µM) | relative viability ([2]; first compound 8 µM) | relative viability ([3]; first compound 0.08 µM) | relative viability ([3]; first compound 0.253 µM) | relative viability ([3]; first compound 0.8 µM) | relative viability ([3]; first compound 2.53 µM) | relative viability ([3]; first compound 8 µM) | relative viability ([4]; first compound 0.08 µM) | relative viability ([4]; first compound 0.253 µM) | relative viability ([4]; first compound 0.8 µM) | relative viability ([4]; first compound 2.53 µM) | relative viability ([4]; first compound 8 µM)
1 | HCC-366 | 0.135 | 0.0662 | 0.155 | 0.387 | 0.0931 | 0.291 | 0.274 | 0.388 | 0.409 | 0.481 | 0.987 | 1.06 | 1.01 | 1.08 | 0.908 | 0.357 | 0.297 | 0.333 | 0.414 | 0.297
2 | HOP-62 | 0.388 | 0.354 | 0.38 | 0.377 | 0.244 | 0.63 | 0.407 | 0.394 | 0.923 | 0.822 | 0.837 | 0.754 | 0.684 | 0.868 | 0.331 | 0.199 | 0.177 | 0.223 | 0.235 | 0.253
3 | LU99A | 0.282 | 0.29 | 0.32 | 0.209 | 0.205 | 0.338 | 0.321 | 0.491 | 0.317 | 0.49 | 1.16 | 1.05 | 1.01 | 0.94 | 0.803 | 0.914 | 0.777 | 0.978 | 0.837 | 0.739
4 | NCI-H647 | 0.278 |  | 0.262 | 0.348 | 0.303 | 0.676 | 0.554 | 0.496 | 0.554 | 0.48 | 0.789 | 0.849 | 0.941 | 1.05 | 0.891 | 0.314 | 0.235 | 0.562 | 0.453 | 0.452
5 | A-427 | 0.245 | 0.202 | 0.187 | 0.2 | 0.192 | 0.763 | 0.912 | 0.853 | 1.13 | 0.998 | 0.975 | 0.944 | 1.04 | 0.925 | 0.916 | 0.606 | 0.521 | 0.612 | 0.52 | 0.589
6 | NCI-H441 | 0.729 | 0.598 | 0.704 | 0.513 | 0.406 | 1.1 | 1.09 | 0.979 | 1.28 | 0.994 | 0.662 | 0.429 | 0.314 | 0.406 | 0.531 | 0.262 | 0.265 | 0.258 | 0.201 | 0.256
7 | NCI-H2126 | 0.868 | 0.823 | 0.846 | 0.676 | 0.736 | 1.04 | 0.987 | 0.994 | 0.822 | 0.909 | 1.12 | 1.14 | 1.07 | 0.957 | 1.04 | 0.567 | 0.565 | 0.606 | 0.55 | 0.47
8 | HCC-44 | 0.858 | 1.19 | 0.969 | 0.861 | 0.791 | 1.02 | 1.05 | 1.12 | 1.12 | 0.944 | 0.841 | 0.885 | 0.82 | 0.758 | 0.881 | 0.946 | 0.996 | 0.99 | 0.927 | 0.906
9 | NCI-H460 | 0.525 | 0.561 | 0.502 | 0.465 | 0.363 | 0.567 | 0.752 | 0.71 | 1.06 | 0.773 | 1.14 | 1.26 | 1.09 | 1.48 | 0.912 | 0.455 | 0.57 | 0.446 | 0.591 | 0.388
10 | NCI-H322M | 0.49 | 0.497 | 0.474 | 0.462 | 0.435 | 0.594 | 0.646 | 0.637 | 0.692 | 0.907 | 1.21 | 1.4 | 1.18 | 1.23 | 1.09 | 0.782 | 0.715 | 0.715 | 0.668 | 0.614
11 | EKVX |  | 0.453 | 0.372 | 0.363 | 0.322 | 0.767 | 0.767 | 0.791 | 0.642 | 0.711 | 1.03 | 1.07 | 0.985 | 0.854 | 0.861 | 0.299 | 0.224 | 0.366 | 0.184 | 0.377
12 | NCI-H1734 | 0.269 | 0.245 | 0.277 | 0.247 | 0.257 | 0.533 | 0.43 | 0.584 | 0.561 | 0.642 | 0.873 | 0.833 | 0.882 | 1.08 | 0.824 | 0.503 | 0.405 | 0.509 | 0.518 | 0.496
13 | ABC-1 | 0.149 | 0.131 | 0.189 | 0.186 | 0.207 | 0.944 | 0.764 | 0.782 | 0.719 | 0.637 | 0.318 | 0.312 | 0.296 | 0.274 | 0.339 | 1.11 | 1.18 | 1.17 |  | 0.6
14 | EPLC-272H | 0.247 | 0.231 | 0.297 | 0.181 | 0.153 | 0.203 | 0.17 | 0.208 | 0.329 | 0.347 | 0.872 | 0.676 | 0.991 | 1.03 | 0.907 | 0.373 | 0.432 | 0.336 | 0.395 | 0.342
15 | NCI-H1993 | 0.546 | 0.578 | 0.596 | 0.541 | 0.508 | 0.778 | 0.739 | 0.843 | 0.662 | 0.63 | 1.12 | 0.878 | 0.936 | 0.784 | 0.924 | 0.62 | 0.549 | 0.632 | 0.54 | 0.441
16 | NCI-H596 | 0.862 |  | 0.849 | 1.03 | 0.865 | 1.12 |  | 1.17 | 1.19 | 0.993 | 1.1 | 0.892 | 0.96 | 1.19 | 0.914 | 0.951 |  | 0.961 | 1.03 | 0.828
17 | HCC-827 | 0.415 | 0.413 | 0.42 | 0.383 | 0.324 | 0.211 | 0.19 | 0.217 | 0.209 | 0.172 | 1.08 | 1.03 | 1.05 | 1.04 | 0.881 | 0.337 | 0.36 | 0.327 | 0.287 | 0.273
